From the NIST ThermoML archive (doi:10.1016/j.jct.2016.03.030)

Assay: xn = mol fraction of the nth substance listed
Settings: 100 kPa, Liquid; for viscosity: Falling or rolling sphere viscometry; for mass density: Vibrating tube method

CCCCC[N+]1(C)CCOCC1.[Br-] [4-methyl-4-pentylmorpholinium bromide] + O
Settings | mass density [kg/m3] | viscosity [mPa·s]
298.15 K, x1 = 0.0316 | 1072.8 | 1.957
298.15 K, x1 = 0.0695 | 1127.6 | 4.131
298.15 K, x1 = 0.0965 | 1153.8 | 6.746
298.15 K, x1 = 0.1196 | 1170 | 9.795
298.15 K, x1 = 0.1522 | 1187.7 | 16.25
298.15 K, x1 = 0.2054 | 1208.2 | 36.11
298.15 K, x1 = 0.219 | 1212.2 | 44.38
298.15 K, x1 = 0.2438 | 1218.9 | 64.59
298.15 K, x1 = 0.2754 | 1226 | 103.9
303.15 K, x1 = 0.0316 | 1070.5 | 1.7
303.15 K, x1 = 0.0695 | 1124.5 | 3.505
303.15 K, x1 = 0.0965 | 1150.6 | 5.63
303.15 K, x1 = 0.1196 | 1166.6 | 8.076
303.15 K, x1 = 0.1522 | 1184.4 | 13.14
303.15 K, x1 = 0.2054 | 1204.9 | 28.07
303.15 K, x1 = 0.219 | 1208.8 | 34.04
303.15 K, x1 = 0.2438 | 1215.6 | 48.66
303.15 K, x1 = 0.2754 | 1222.7 | 76.46
308.15 K, x1 = 0.0316 | 1067.9 | 1.484
308.15 K, x1 = 0.0695 | 1121.3 | 2.997
308.15 K, x1 = 0.0965 | 1147.2 | 4.74
308.15 K, x1 = 0.1196 | 1163.3 | 6.709
308.15 K, x1 = 0.1522 | 1181 | 10.79
308.15 K, x1 = 0.2054 | 1201.5 | 22.24
308.15 K, x1 = 0.219 | 1205.5 | 26.62
308.15 K, x1 = 0.2438 | 1212.2 | 37.45
308.15 K, x1 = 0.2754 | 1219.4 | 57.57
313.15 K, x1 = 0.0316 | 1065.3 | 1.309
313.15 K, x1 = 0.0695 | 1118.1 | 2.586
313.15 K, x1 = 0.0965 | 1143.9 | 4.035
313.15 K, x1 = 0.1196 | 1159.8 | 5.642
313.15 K, x1 = 0.1522 | 1177.5 | 8.994
313.15 K, x1 = 0.2054 | 1198.1 | 17.82
313.15 K, x1 = 0.219 | 1202.1 | 21.2
313.15 K, x1 = 0.2438 | 1208.9 | 29.17
313.15 K, x1 = 0.2754 | 1216.1 | 44.03
318.15 K, x1 = 0.0316 | 1062.6 | 1.159
318.15 K, x1 = 0.0695 | 1114.9 | 2.252
318.15 K, x1 = 0.0965 | 1140.5 | 3.465
318.15 K, x1 = 0.1196 | 1156.4 | 4.796
318.15 K, x1 = 0.1522 | 1174.1 | 7.569
318.15 K, x1 = 0.2054 | 1194.7 | 14.56
318.15 K, x1 = 0.219 | 1198.7 | 17.13
318.15 K, x1 = 0.2438 | 1205.5 | 23.22
318.15 K, x1 = 0.2754 | 1212.7 | 34.22
323.15 K, x1 = 0.0316 | 1059.7 | 1.023
323.15 K, x1 = 0.0695 | 1111.5 | 1.95
323.15 K, x1 = 0.0965 | 1137 | 2.963
323.15 K, x1 = 0.1196 | 1152.9 | 4.065
323.15 K, x1 = 0.1522 | 1170.6 | 6.349
323.15 K, x1 = 0.2054 | 1191.3 | 11.9
323.15 K, x1 = 0.219 | 1195.4 | 13.89
323.15 K, x1 = 0.2438 | 1202.2 | 18.52
323.15 K, x1 = 0.2754 | 1209.4 | 26.85
328.15 K, x1 = 0.0316 | 1056.6 | 0.908
328.15 K, x1 = 0.0695 | 1108.1 | 1.703
328.15 K, x1 = 0.0965 | 1133.5 | 2.557
328.15 K, x1 = 0.1196 | 1149.4 | 3.475
328.15 K, x1 = 0.1522 | 1167.1 | 5.382
328.15 K, x1 = 0.2054 | 1187.9 | 9.86
328.15 K, x1 = 0.219 | 1191.9 | 11.44
328.15 K, x1 = 0.2438 | 1198.8 | 15.02
328.15 K, x1 = 0.2754 | 1206.1 | 21.35
333.15 K, x1 = 0.0316 | 1053.5 | 0.817
333.15 K, x1 = 0.0695 | 1104.7 | 1.504
333.15 K, x1 = 0.0965 | 1130 | 2.234
333.15 K, x1 = 0.1196 | 1145.9 | 3.003
333.15 K, x1 = 0.1522 | 1163.6 | 4.616
333.15 K, x1 = 0.2054 | 1184.4 | 8.297
333.15 K, x1 = 0.219 | 1188.5 | 9.561
333.15 K, x1 = 0.2438 | 1195.4 | 12.38
333.15 K, x1 = 0.2754 | 1202.7 | 17.33
338.15 K, x1 = 0.0316 | 1050.5 | 0.74
338.15 K, x1 = 0.0695 | 1101.2 | 1.374
338.15 K, x1 = 0.0965 | 1126.5 | 1.965
338.15 K, x1 = 0.1196 | 1142.3 | 2.724
338.15 K, x1 = 0.1522 | 1160.1 | 3.961
338.15 K, x1 = 0.2054 | 1180.9 | 7.055
338.15 K, x1 = 0.219 | 1185.1 | 8.079
338.15 K, x1 = 0.2438 | 1192 | 10.39
338.15 K, x1 = 0.2754 | 1199.3 | 14.54
343.15 K, x1 = 0.0316 | 1047.2 | 0.677
343.15 K, x1 = 0.0695 | 1097.8 | 1.288
343.15 K, x1 = 0.0965 | 1122.9 | 1.733
343.15 K, x1 = 0.1196 | 1138.7 | 2.554
343.15 K, x1 = 0.1522 | 1156.5 | 3.412
343.15 K, x1 = 0.2054 | 1177.5 | 6.064
343.15 K, x1 = 0.219 | 1181.6 | 7.061
343.15 K, x1 = 0.2438 | 1188.5 | 8.615
343.15 K, x1 = 0.2754 | 1196 | 12.93
